We go through 20 compounds from US9034921B2, “Diphenylmethane derivatives as SGLT2 inhibitors” (GREEN CROSS CORPORATION, priority 2011, dated 2015).

SMILES strings stand for the structures.

Sequence of human SGLT2 (P31639 whole entry): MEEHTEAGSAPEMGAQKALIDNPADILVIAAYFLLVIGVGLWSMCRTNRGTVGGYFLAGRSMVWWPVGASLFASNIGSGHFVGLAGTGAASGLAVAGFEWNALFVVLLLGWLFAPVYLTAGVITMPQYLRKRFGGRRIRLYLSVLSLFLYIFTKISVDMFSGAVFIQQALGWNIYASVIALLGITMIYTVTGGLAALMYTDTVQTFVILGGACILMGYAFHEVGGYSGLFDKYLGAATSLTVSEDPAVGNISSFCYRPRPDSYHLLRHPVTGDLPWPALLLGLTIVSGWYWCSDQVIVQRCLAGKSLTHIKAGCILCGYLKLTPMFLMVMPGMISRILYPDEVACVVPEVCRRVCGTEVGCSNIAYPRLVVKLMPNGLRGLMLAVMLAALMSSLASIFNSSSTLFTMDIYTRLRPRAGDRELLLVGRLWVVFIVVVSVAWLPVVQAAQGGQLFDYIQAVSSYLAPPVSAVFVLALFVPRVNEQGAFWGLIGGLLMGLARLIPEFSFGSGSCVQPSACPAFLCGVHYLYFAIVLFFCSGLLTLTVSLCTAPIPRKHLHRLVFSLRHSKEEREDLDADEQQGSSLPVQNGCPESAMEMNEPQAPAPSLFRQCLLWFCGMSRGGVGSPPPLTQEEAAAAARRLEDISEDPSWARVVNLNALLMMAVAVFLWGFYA

This assay has as its target human SGLT2 (Homo sapiens (Human), UniProt P31639). Kind of assay: Inhibitory effects on human SGLT2 activities (14C-AMG uptake, sodium-dependent glucose transport assay). The format is cell-based. To be noted: CHO cells stably expressing hSGLT2, 37° C., 2 h, single determinations. Put shortly: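 CHO cells stably expressing hSGLT2 were preincubated 10 min at 37 °C in choline (Na+-free) buffer, then exposed 2 h at 37 °C to compound in Na+ uptake buffer with 8 μM 14C-AMG and 1 mM unlabeled AMG. Radioactivity was scintillation counted; IC50 came from nonlinear regression.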
For the compound `OC[C@H]1O[C@@H](c2ccc(Cl)c(Cc3ccc4c(c3)OC=CO4)c2)[C@H](O)[C@@H](O)[C@@H]1O` [Example E069], the IC50 (in general, the point on the concentration scale where inhibition reaches its midpoint) was found to be 0.788 nM.

`CCOc1ccc(Cc2cc([C@@H]3O[C@H](CO)[C@@H](O)[C@H](O)[C@H]3O)c3c(c2Cl)CCC3)cc1` [Example E008, (2S,3R,4R,5S,6R)-2-(7-Chloro-6-(4-ethoxybenzyl)-2,3-dihydro-1H-inden-4-yl)-6-(hydroxymethyl)tetrahydro-2H-pyran-3,4,5-triol] returned an IC50 of 0.551 nM.

For the compound `CCOc1ccc(Cc2cc([C@@H]3O[C@H](CO)[C@@H](O)[C@H](O)[C@H]3O)c3c(c2Cl)C(C)CO3)cc1` (stereo partly drawn) [Example E222, (2S,3R,4R,5S,6R)-2-(4-Chloro-5-(4-ethoxybenzyl)-3-methyl-2,3-dihydrobenzofuran-7-yl)-6-(hydroxymethyl)-tetrahydro-2H-pyran-3,4,5-triol], the IC50 stood at 1.99 nM.

Consider `CCOc1ccc(Cc2cc([C@@H]3O[C@H]([S+](C)[O-])[C@@H](O)[C@H](O)[C@H]3O)c3c(c2Cl)CC(C)O3)cc1` (stereo partly drawn) [Example E147, (2S,3R,4R,5S,6R)-2-(4-Chloro-5-(4-ethoxybenzyl)-2-methyl-2,3-dihydrobenzofuran-7-yl)-6-((S)-methylsulfinyl)tetrahydro-2H-pyran-3,4,5-triol], for which the IC50 was determined as 5.4 nM.

Consider `CCOc1ccc(Cc2cc([C@@H]3O[C@H](CO)[C@@H](O)[C@H](O)[C@H]3O)c3c(c2Cl)CCO3)cc1` [Example E022, (2S,3R,4R,5S,6R)-2-(4-Chloro-5-(4-ethoxybenzyl)-2,3-dihydrobenzofuran-7-yl)-6-(hydroxymethyl)tetrahydro-2H-pyran-3,4,5-triol], for which the IC50 came to 0.833 nM.

In turn, `COc1cc(Cl)c(Cc2ccc3c(c2)OCCO3)cc1[C@@H]1S[C@H](CO)[C@@H](O)[C@H](O)[C@H]1O` [Example E048, (2S,3R,4R,5S,6R)-2-(4-Chloro-5-((2,3-dihydrobenzo[b][1,4]dioxin-6-yl)methyl)-2-methoxyphenyl)-6-(hydroxymethyl)tetrahydro-2H-thiopyran-3,4,5-triol] showed an IC50 of 2.62 nM.

`CCOc1ccc(Cc2cc([C@@H]3O[C@H](CO)[C@@H](O)[C@H](O)[C@H]3O)c3c(c2Cl)CCCO3)cc1` [Example E012, (2S,3R,4R,5S,6R)-2-(5-Chloro-6-(4-ethoxybenzyl)chroman-8-yl)-6-(hydroxymethyl)tetrahydro-2H-pyran-3,4,5-triol]: the IC50 is 1.55 nM.

As to `CCOc1ccc(Cc2cc([C@@H]3O[C@H](SC)[C@@H](O)[C@H](O)[C@H]3O)cc(OC)c2Cl)cc1` [Example E114, (2S,3R,4R,5S,6R)-2-(4-Chloro-3-(4-ethoxybenzyl)-5-methoxyphenyl)-6-(methylthio)tetrahydro-2H-pyran-3,4,5-triol], half-maximal inhibition (IC50) was put at 0.308 nM.

Regarding `CCCc1c(Cc2ccc(OCC)cc2)cc([C@@H]2O[C@H](CO)[C@@H](O)[C@H](O)[C@H]2O)c2c1OCC2` [Example E229, (2S,3R,4R,5S,6R)-2-(6-(4-Ethoxybenzyl)-7-propyl-2,3-dihydrobenzofuran-4-yl)-6-(hydroxymethyl)-tetrahydro-2H-pyran-3,4,5-triol], the IC50 was 5.6 nM.

Compound `OC[C@H]1O[C@@H](c2cc(Cc3ccc(C4CC4)cc3)c(Cl)c3c2CCCO3)[C@H](O)[C@@H](O)[C@@H]1O` [Example E155, (2S,3R,4R,5S,6R)-2-(8-Chloro-7-(4-cyclopropylbenzyl)chroman-5-yl)-6-(hydroxymethyl)tetrahydro-2H-pyran-3,4,5-triol] yielded a half-maximal inhibitory concentration (IC50) of 0.881 nM.

As for `C#Cc1ccc(Cc2cc([C@@H]3O[C@H](CO)[C@@H](O)[C@H](O)[C@H]3O)c3c(c2Cl)OCC3)cc1` [Example E182, (2S,3R,4R,5S,6R)-2-(7-Chloro-6-(4-ethynylbenzyl)-2,3-dihydrobenzofuran-4-yl)-6-(hydroxymethyl)tetrahydro-2H-pyran-3,4,5-triol], it took 1.03 nM to reach half-maximal inhibition (IC50).

As for `CNc1ccc(Cc2cc([C@@H]3O[C@H](CO)[C@@H](O)[C@H](O)[C@H]3O)c3c(c2Cl)CCC3)cc1` [Example E140, (2S,3R,4R,5S,6R)-2-(7-Chloro-6-(4-(methylamino)benzyl)-2,3-dihydro-1H-inden-4-yl)-6-(hydroxymethyl)tetrahydro-2H-pyran-3,4,5-triol 2,2,2-trifluoroacetate], the IC50 was determined as 1.34 nM.

`COc1cc([C@@H]2O[C@H](SC)[C@@H](O)[C@H](O)[C@H]2O)cc(Cc2ccc3c(c2)OCCO3)c1Cl` [Example E113, (2S,3R,4R,5S,6R)-2-(4-Chloro-3-((2,3-dihydrobenzo[b][1,4]dioxin-6-yl)methyl)-5-methoxyphenyl)-6-(methylthio)tetrahydro-2H-pyran-3,4,5-triol] gave an IC50 of 0.551 nM.

`CCOc1ccc(Cc2cc([C@@H]3O[C@H](SC)[C@@H](O)[C@H](O)[C@H]3O)c(OC)cc2Cl)cc1` [Example E111, (2S,3R,4R,5S,6R)-2-(4-Chloro-5-(4-ethoxybenzyl)-2-methoxyphenyl)-6-(methylthio)tetrahydro-2H-pyran-3,4,5-triol]: half-maximal inhibition (IC50) required 0.783 nM.

`COc1ccc(Cc2cc([C@@H]3O[C@H](CO)[C@@H](O)[C@H](O)[C@H]3O)c3c(c2Cl)OC(C)C3)cc1` (stereo partly drawn) [Example E130, (2S,3R,4R,5S,6R)-2-(7-Chloro-6-(4-methoxybenzyl)-2-methyl-2,3-dihydrobenzofuran-4-yl)-6-(hydroxymethyl)tetrahydro-2H-pyran-3,4,5-triol] came in with an IC50 of 1.78 nM.

In the case of `CCc1ccc(Cc2cc([C@@H]3O[C@H](CO)[C@@H](O)[C@H](O)[C@H]3O)c3c(c2C(F)F)CCC3)cc1` [Example E239, (2S,3R,4R,5S,6R)-2-(7-(Difluoromethyl)-6-(4-ethylbenzyl)-2,3-dihydro-1H-inden-4-yl)-6-(hydroxymethyl)tetrahydro-2H-pyran-3,4,5-triol], the IC50 came out at 0.718 nM.

For the compound `COc1ccc(Cc2cc([C@@H]3O[C@H](CO)[C@@H](O)[C@H](O)[C@H]3O)c3oc(C)c(OC)c3c2Cl)cc1` [Example E201, (2S,3R,4R,5S,6R)-2-(4-Chloro-3-methoxy-5-(4-methoxybenzyl)-2-methylbenzofuran-7-yl)-6-(hydroxymethyl)tetrahydro-2H-pyran-3,4,5-triol], the IC50 worked out at 49.4 nM.

For `C=Cc1ccc(Cc2cc([C@@H]3O[C@H](CO)[C@@H](O)[C@H](O)[C@H]3O)c3c(c2Cl)CCO3)cc1` [Example E119, (2S,3R,4R,5S,6R)-2-(4-Chloro-5-(4-vinylbenzyl)-2,3-dihydrobenzofuran-7-yl)-6-(hydroxymethyl)tetrahydro-2H-pyran-3,4,5-triol], the IC50 was 1.38 nM.

`OC[C@H]1O[C@@H](c2cc(Cc3ccc(C4CC4)cc3)c(Cl)c3c2OCCO3)[C@H](O)[C@@H](O)[C@@H]1O` [Example E163, (2S,3R,4R,5S,6R)-2-(8-Chloro-7-(4-cyclopropylbenzyl)-2,3-dihydrobenzo[b][1,4]dioxin-5-yl)-6-(hydroxymethyl)tetrahydro-2H-pyran-3,4,5-triol]: the IC50 stood at 0.651 nM.

With `COC1O[C@@H](c2ccc(Cl)c(Cc3ccc4c(c3)OCCO4)c2)[C@H](O)[C@@H](O)[C@@H]1O` (stereo partly drawn) [Example E093, (2S,3R,4R,5S)-2-(4-Chloro-3-((2,3-dihydrobenzo[b][1,4]dioxin-6-yl)methyl)phenyl)-6-methoxytetrahydro-2H-pyran-3,4,5-triol], the IC50 is 16.8 nM.
